# Laboratory results: patent publication US20210047290A1, “SPIRO COMPOUND AS INDOLEAMINE-2,3-DIOXYGENASE INHIBITOR” (SHANGHAI INSTITUTE OF ORGANIC CHEMISTRY, CHINESE ACADEMY OF …, priority 2018, published 2021)
# Legend:
# [1] = biological target: T1, IDO enzyme (Homo sapiens, UniProt P14902); experiment: IDO enzyme inhibitory activity test; format: biochemical; conditions: recombinant IDO, D-Trp substrate, reading at 321 nm for 40 min
# T1 construct: made in house; host or cells: E. coli BL21 (pET28a-IDO plasmid)
# T1 sequence (P14902 whole entry): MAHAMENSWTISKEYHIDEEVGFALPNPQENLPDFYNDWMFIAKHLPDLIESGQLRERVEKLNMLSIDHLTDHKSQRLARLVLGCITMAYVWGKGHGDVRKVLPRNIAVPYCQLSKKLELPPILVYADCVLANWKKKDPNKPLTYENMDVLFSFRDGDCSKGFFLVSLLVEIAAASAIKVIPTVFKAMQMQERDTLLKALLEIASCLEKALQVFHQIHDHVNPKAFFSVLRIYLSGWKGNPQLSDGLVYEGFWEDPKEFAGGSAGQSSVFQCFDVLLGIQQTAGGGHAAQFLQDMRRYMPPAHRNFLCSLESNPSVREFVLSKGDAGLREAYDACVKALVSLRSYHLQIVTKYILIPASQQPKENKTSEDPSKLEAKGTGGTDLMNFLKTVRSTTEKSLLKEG
# Description: (1) Induced Expression and Purification Method of IDO Protein
# Firstly, DO gene was amplified with PCR, and the amplified PCR product was recycled. Digestion (2 h under 37° C.), gel running and recycling were carried out on the pET28a plasmid (purchased from Shanghai Baomanbio Co., Ltd.) and IDO gel with two restriction enzymes (EcoR I and Xho I). T4 ligase was connected with the product overnight, added into DH5α competence, placed on the ice for 30 min and subjected to thermal shock at 42° C. for 90 s.
# BL21 which contained pET28a-IDO plasmid was shaken vigorously at 37° C. till OD600 was 0.6-0.8, added into hemin (final concentration: 40 μM) and 0.5 mM IPTG (isopropyl-3-D-IPTG) and induced under 16° C. for 20 h; after induction, thallus were collected centrifugally at 4° C. and 6,000 rpm, washed with 50 mM PBS (pH 7.5) and collected again centrifugally.
# The collected thallus were suspended again with buffer solution (50 mM PBS pH 7.5). An appropriate amount of 100×PMSF was added. The thallus were disrupted with cell disruption instrument (1,400 bar) at 4° C. for three times. The split bacteria were centrifuged at 18,000×g for 45 min. The sediment was removed but supernatant was retained and filtered with a 0.45 μm film at 4° C.; the nickel column was balanced with lysis buffer (50 mM PBS pH7.5) by 3 column volumes.
# The supernatant was loaded on the nickel column and washed with wash solution (50 mM PBS pH7.5, 50 mM imidazole) by 4 column volume. Finally, protein was eluted with eluant (50 mM PBS pH7.5, 250 mM imidazole); dialyzed for 6 h with dialysis solution (50 mM PBS pH7.5), concentrated, sub-packaged, quickly frozen with liquid nitrogen and stored at −80° C. for backup.
# (2) Test Method for IDO Enzyme Inhibitory Activity
# Firstly, the compound was diluted by triple gradient. 1 μL of each concentration was added into a 96-well plate; 50 μL of IDO Enzyme solution PBS (pH 7.5; final concentration: 50 mM) was added: 25 μL of substrate 1 (methylene blue, final concentration: […]; catalase, final concentration: 0.2 μg/L; PBS (pH 7.5; final concentration: 50 mM) mixture and 25 μL of substrate 2 (D-Trp, final concentration: 1.5 mM; sodium ascorbate, final concentration: 20 mM; PBS (pH 7.5), final concentration 50 mM) mixture were added for starting the reaction. Finally, OOD321 nm reading was carried out for 40 min.
# [2] = biological target: T2, IDO in Hela cells (Homo sapiens, UniProt P14902); experiment: Test of cellular activity (kynurenine formation in interferon γ stimulated Hela cells); format: cell-based; conditions: head prints IPS cells, method: Hela cells, 48 h incubation, read at 480 nm
# T2 construct: endogenous in cells; host or cells: HeLa cells stimulated with human interferon γ
# T2 sequence (P14902 whole entry): as above
# Description: (3) Test Method of Cellular Activity
# Hela cells (80 μL) was inoculated on a 96-well plate (5×10^3 for each well) to grow overnight. After the compound was diluted the next day, 1 μL of diluent and 100 μL of culture medium which contains human interferon γ (final concentration: 50 ng/m) were added into the 96-well plate to make the final volume reach […]. After incubating for 48 h, 80 μL of supernate was transferred from each well to a new […]. 10 μL 6.1N trichloroacetic acid was added into each well for mixing and incubation at 50° C. for 30 min, and […] N formyl-kynurenin into kynurenine. The reaction mixture was centrifuged at 2,500 rpm for 10 min, 70 μL of supernatant of each well was transferred to a new 96-well plate and mixed with 100 μL of 2% (w/v) dimethylaminobenzaldehyde acetic acid solution. After placing for 5-10 min, measurement was carried out at 480 nm with the SPECTRAmax i13 reader.
structure (smiles),measurement,setting,value
"O=C(Nc1ccc(Cl)cc1)C1CC2(CCC(c3ccnc4ccc(F)cc34)CC2)C1 (single isomer, unassigned) [Example 15B, N-(4-chlorophenyl)-7-(6-fluoroquinolin-4-yl)spiro[3.5]nonane-2-carboxamide]",IC50,[1],400 nM
same,IC50,[2],2.53 nM
